Measurements from paper PMC6021502, “Cannabigerol Action at Cannabinoid CB1 and CB2 Receptors and at CB1–CB2 Heteroreceptor Complexes” (Frontiers in Pharmacology, 2018).
Like-named read-outs stand apart in the source and are kept apart here.

Experiments:
SNAP-CB2R = target: T1, SNAP-CB2R (Homo sapiens, UniProt P34972); test: Homogeneous HTRF competition binding in living HEK-293T cells (fluorophore-conjugated CM-157); settings: living HEK-293T cells expressing SNAP-CB2R, 20 nM fluorescent ligand
T1 construct: host or cells: HEK-293T, transient transfection (PEI)
T1 sequence (P34972 whole entry): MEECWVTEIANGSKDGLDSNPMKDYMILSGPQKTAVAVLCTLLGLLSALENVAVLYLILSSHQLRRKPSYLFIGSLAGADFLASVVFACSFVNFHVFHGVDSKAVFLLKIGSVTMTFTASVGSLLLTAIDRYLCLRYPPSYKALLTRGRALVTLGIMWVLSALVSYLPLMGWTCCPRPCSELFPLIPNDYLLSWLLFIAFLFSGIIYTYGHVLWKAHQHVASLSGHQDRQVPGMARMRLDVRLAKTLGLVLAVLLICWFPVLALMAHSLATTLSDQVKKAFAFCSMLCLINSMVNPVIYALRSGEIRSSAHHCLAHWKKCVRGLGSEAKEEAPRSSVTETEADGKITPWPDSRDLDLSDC

CB1R [1] = test system: T2, CB1R; test: ERK1/2 phosphorylation in HEK-293T cells; assay type: cell-based, human
T2 construct: expressed in transfected cells; host or cells: HEK-293T, transient transfection (PEI)
Description: (§1) HEK-293T cells were grown in DMEM medium (Gibco, Paisley, Scotland, United Kingdom) supplemented with 2 mM L-glutamine, 100 U/mL penicillin/streptomycin, MEM Non-Essential Amino Acids Solution (1/100) and 5% (v/v) heat inactivated Foetal Bovine Serum (FBS) (Invitrogen, Paisley, Scotland, United Kingdom). […] Cells were transiently transfected with the PEI (Polyethylenimine, Sigma, St. Louis, MO, United States) method as previously described ([Medrano et al., 2017]; [Navarro et al., 2018b]) and used for functional assays 48 h later (unless otherwise stated).
(§2) To determine ERK1/2 phosphorylation, 50,000 HEK-293T cells/well were plated in transparent Deltalab 96-well microplates and kept at the incubator for 24 h. 2 to 4 h before the experiment, the medium was substituted by serum-starved DMEM medium. Then, cells were pre-treated at 25°C for 10 min with vehicle or CBG in serum-starved DMEM medium and stimulated for an additional 7 min with the specific agonists. Cells were then washed twice with cold PBS before addition of lysis buffer (20 min treatment). 10 μL of each supernatant were placed in white ProxiPlate 384-well microplates and ERK 1/2 phosphorylation was determined using AlphaScreen®SureFire® kit (Perkin Elmer) following the instructions of the supplier and using an EnSpire® Multimode Plate Reader (PerkinElmer, Waltham, MA, United States).

CB2R = test system: T3, CB2R; test: ERK1/2 phosphorylation in HEK-293T cells; assay type: cell-based, human
T3 construct: expressed in transfected cells; host or cells: HEK-293T, transient transfection (PEI)
Description: as §1, §2

[2] = test system: T4, CB1R and CB2R (CB1–CB2 heteroreceptor complexes); test: β-arrestin 2 recruitment (BRET) in HEK-293T cells co-expressing both receptors; assay type: cell-based, human
T4 construct: expressed in transfected cells; host or cells: HEK-293T, transient co-transfection (PEI)
Description: as §1
Arrestin recruitment was determined as previously described ([Medrano et al., 2017]; [Navarro et al., 2018b]). Briefly, BRET experiments were performed in HEK-293T cells 48 h after transfection with the cDNA corresponding to the CB2R-YFP or CB1R-YFP and 1 μg cDNA corresponding to β-arrestin 2-Rluc. […] After 1 min of adding coelenterazine H, BRET between β-arrestin 2-Rluc and receptor-YFP was determined and quantified. The readings were collected using a Mithras LB 940 (Berthold Technologies, Bad Wildbad, Germany) that allows the integration of the signals detected in the short-wavelength filter at 485 nm and the long-wavelength filter at 530 nm. To quantify protein-RLuc expression luminescence readings were also performed 10 min of adding 5 μM coelenterazine H.

CB1R [3] = settings: cited from earlier work
mouse brain membranes = test system: mouse brain membranes; parameters: method as in Cascio et al., 2010; settings: 10 μM CBG, mouse brain membranes treated with AEA or CP-55940; ref Cascio et al., 2010; cited from earlier work
5HT1A receptor = test system: 5HT1A receptor; parameters: method as in Cascio et al., 2010; settings: stimulation by 1 μM 8-OH-DPAT; ref Cascio et al., 2010; cited from earlier work
TRPA1 = settings: ref De Petrocellis et al., cited from earlier work
TRPV1 = test system: TRPV1; parameters: method as in De Petrocellis et al., 2011; settings: ref De Petrocellis et al., 2011; read-out: EC50, agonist of TRPV1; cited from earlier work
TRPV2 = test system: TRPV2; parameters: method as in De Petrocellis et al., 2011; settings: ref De Petrocellis et al., 2011; read-out: EC50, agonist of TRPV2; cited from earlier work
macrophages = test system: macrophages; parameters: method as in Borrelli et al., 2013; settings: ref Borrelli et al., 2013; cited from earlier work

SMILES: CCCCCc1cc(O)c(C/C=C(\C)CCC=C(C)C)c(O)c1 [CBG, cannabigerol]
- Ki (SNAP-CB2R): 152 nM
- Effect on agonist-induced MAPK phosphorylation (CB1R [1]; 100 nM or 1 μM CBG, 100 nM AEA or ACEA, CB1R): unable to modify
- Effect on MAPK phosphorylation (CB1R [1]; CBG alone, 1 nM to 10 μM, CB1R-expressing cells): no significant action
- Effect on AEA and JWH133 effects on ERK1/2 phosphorylation (CB2R; 100 nM or 1 μM CBG pretreatment, 100 nM AEA or JWH133, CB2R): reduced the effects of AEA and JWH133
- Activation of the MAP kinase pathway (CB2R; CBG alone, 1 nM to 10 μM, CB2R-expressing cells): notable
- Effect on agonist actions on β-arrestin recruitment ([2]; 100 nM CBG pretreatment, cells co-expressing CB1R and CB2R): negligible
- β-arrestin recruitment ([2]; CBG alone, dose-effect, cells expressing CB1R and CB2R): negative cross-talk was still evident
- Ki (CB1R [3]; membranes from mice brain, preliminary results, ref Gauson et al., 2007, Pertwee, 2008): 300 to 500 nM
- Ki (CB1R [3]; mouse brain membranes, ref Cascio et al., 2010): 381 nM
- Effect on [35S]GTPγS binding (mouse brain membranes): antagonized
- Effect on [35S]GTPγS binding upon 5HT1A stimulation (5HT1A receptor): able to antagonize
- EC50 values, transient receptor potential channels of ankyrin type-1 (TRPA1; 2008): micromolar range
- EC50 (TRPA1; 2011, read-out: EC50, agonist/desensitizer of TRPA1): 700 nM
- EC50 (TRPV1): 1300 nM
- EC50 (TRPV2): 1700 nM
- Nitrite release from macrophages after LPS stimulation (macrophages): reduce
